Consider one compound from patent US12168005B2, “Methods for treating wild type isocitrate dehydrogenase 1 cancers” (University Hospitals Cleveland Medical Center, priority 2019, dated 2024).

Structures are written as SMILES.

For data set [1] the following is noted: 500 mg daily in humans; cited from earlier work.
Data set [2] has as its target T1, wild type IDH1 (Homo sapiens, UniProt O75874).
T1 construct: endogenous in cells; host or cells: MiaPaCa2
The experiment in a line: wild type IDH1 enzyme activity at varying Mg2+ concentrations (FIG. 19). Type of data set: cell-based. The note with it: 1 μM, Mg2+ below 0.4 mM. From the text:
In one embodiment, the cancer treated in accordance with any of the invention's methods contains cancer cells having a lower Magnesium^2+ (Mg^2+) concentration compared to Mg^2+ concentration in serum, such as serum from the subject and/or serum from a control subject lacking cancer.

For data set [3], the system named is wild type IDH1 pancreatic cancer (MiaPaCa2 cell line) xenografts. The experiment in a line: pancreatic xenograft study (MiaPaCa2). Particulars: oral 150 mg/kg. Type of data set: in vivo, mice. An excerpt:
FIG. 7. […] No toxicity to mice occurred at these oral doses.
No toxicity was observed.

In data set [4] the test system is pancreatic cancer cell line (Panc1) cells. The experiment in a line: reactive oxygen species (ROS) levels in Panc1 cells. It counts as cell-based. The note with it: 1 μM, zero mM magnesium ion, 2.5 mM glucose, Panc1, 48 hours. How it is done: ROS levels were measured by measuring 2′,7′-dichlorodihydrofluorescein diacetate (DCFDA) or MitoSOX as previously described (Zarei et al. (2017) Cancer Res; 77(16) 4460-4471).
Importantly, these low magnesium ion and low glucose conditions were consistent with the pancreatic cancer tumor microenvironment (FIG. 6).

T1 sequence (O75874 2-414): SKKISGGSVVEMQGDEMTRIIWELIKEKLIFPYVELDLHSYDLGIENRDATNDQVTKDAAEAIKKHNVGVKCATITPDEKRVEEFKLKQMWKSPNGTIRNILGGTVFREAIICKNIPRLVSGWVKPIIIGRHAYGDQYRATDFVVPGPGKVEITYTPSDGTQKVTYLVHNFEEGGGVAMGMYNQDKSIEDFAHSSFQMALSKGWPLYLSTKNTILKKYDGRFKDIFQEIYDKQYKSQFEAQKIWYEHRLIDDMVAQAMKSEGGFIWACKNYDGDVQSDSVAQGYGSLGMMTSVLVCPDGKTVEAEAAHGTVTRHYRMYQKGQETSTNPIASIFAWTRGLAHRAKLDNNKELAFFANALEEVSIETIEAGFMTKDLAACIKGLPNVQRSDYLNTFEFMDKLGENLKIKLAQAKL

As for `N#Cc1ccnc(N2C(=O)CC[C@H]2C(=O)N(c2cncc(F)c2)[C@H](C(=O)NC2CC(F)(F)C2)c2ccccc2Cl)c1` [AG-120, Ivosidenib], the plasma concentration in data set [1] is 130 µM. Besides, the “reduction of wild type IDH1 enzyme activity” value in data set [2] came to 50%. In addition, the toxicity to mice result in data set [3] is given as “No toxicity”. The “increase in ROS” value in data set [4] is 3 fold.
